Measurements: patent publication US20040033987A1, “Phospholipid derivatives of valproic acid and mixtures thereof” (priority 2003, published 2004)
Entries after “also recorded” stand apart in the source; their conditions may differ.

Assays:
[1] = compared with sodium valproate; from Ser. No. 08/479,959 and WO 94/22483; listed as TVA 16; cited from earlier work
[2] = tested on: pentylenetetrazol (PTZ) induced seizure; assay: PTZ-induced seizures test in mice; format: in vivo, CD-1 mice; conditions: for time of peak activity / maximal therapeutic effect: PTZ-induced seizures, s.c. equivalent to 40 mg/kg VPA; for % Protection / Second seizure (n//N): s.c. pre-treatment equivalent to 40 mg/kg VPA
Procedure: The anti-epileptic efficacies of C16-DP-VPA, C18-DP-VPA and mixtures comprising both C16-DP-VPA and C18-DP-VPA were evaluated in mice. The protective effect of the compounds was compared at different time points following chemical seizure induction by pentylenetetrazol (PTZ).
The pentylenetetrazol (PTZ) induced seizure model in mice is an established animal model system for epilepsy. Subcutaneous injection of PTZ into control animals results in the following sequence of events: myoclonic jerks within 1-2 mins, followed by clonic and clonic-tonic seizures each lasting approximately 5-10 secs with the severity of seizures increasing with time for up to 30 mins. 80% of the first seizures are-observed within 5 mins, and 100% within 20 mins. The second seizures usually follow within 6-10 mins and subsequent seizures (if any) every 6 mins.
CD-1 mice (25-30 g) were pre-treated by subcutaneous (s.c.) injection of either C16-DP-VPA or C18-DP-VPA or a mixture thereof. The amounts used were equivalent to 40 mg/kg VPA. After different times as indicated, 1, 2 or 4 hours, a convulsive dose of pentylenetetrazol (85-100 mg/kg) was subcutaneously injected into the mice. The animals were monitored for one hour following the PTZ administration for the occurrence of episodes of clonic spasms persisting for at least 5 sec.

[3] = Pharmacokinetics study in humans: plasma levels by LC-MS/MS after a single oral administration; format: in vivo, human; conditions: for time at which the peak concentration in the plasma was reached / terminal plasma half-life (t1/2): human plasma, single oral administration of C16/C18-DP-VPA (13%:87% w/w); for terminal plasma half-life (t1/2): calculated from plasma concentration-time profiles; for plasma concentration: human
Procedure: In order to assess the pharmacokinetic properties of the C16-DP-VPA and C18-DP-VPA compounds, the plasma levels of these compounds were monitored in human subjects.
Healthy male volunteers, 18-40 year old, (7 individuals for each dose tested) received, by a single oral administration, 0.3125 g, 0.625 g or 1.25 g of C16/C18-DP-VPA mixture at a ratio of C16/C18=13%: 87% (w/w). Blood samples, 10 ml each, were drawn from each individual at the time points after the administration of the drug, as indicated. The samples were centrifuged at 4° C. at 1100 g for 10 minutes immediately after collection. Plasma levels of C16-DP-VPA and C18-DP-VPA were determined using a LC-MS/MS technique. The plasma concentration profiles of C16-DP-VPA and C18-DP-VPA as monitored for 24 hours following a single oral administration 0.625 g of C16/C18-DP-VPA are shown, respectively, in FIGS. 2A and 2B.

[4] = 1 hour after single oral 0.625 g C16/C18-DP-VPA
[5] = 3 hours after single oral 0.625 g C16/C18-DP-VPA
[6] = 6 hours after single oral 0.625 g C16/C18-DP-VPA
[7] = 8 hours after single oral 0.625 g C16/C18-DP-VPA
[8] = 10 hours after single oral 0.625 g C16/C18-DP-VPA
[9] = 12 hours after single oral 0.625 g C16/C18-DP-VPA

Compound	anticonvulsant activity [1]	time of peak activity / maximal therapeutic effect [2] [h]	% Protection ([2]; PTZ after 1 h) [%]	Second seizure (n//N) ([2]; PTZ after 1 h)	% Protection ([2]; PTZ after 2 h) [%]	Second seizure (n//N) ([2]; PTZ after 2 h)	% Protection ([2]; PTZ after 4 h) [%]	Second seizure (n//N) ([2]; PTZ after 4 h)	time at which the peak concentration in the plasma was reached [3] [h]	terminal plasma half-life (t1/2) [3] [h]	plasma concentration [3, 4] [ng/mL]	plasma concentration [3, 5] [ng/mL]	plasma concentration [3, 6] [ng/mL]	plasma concentration [3, 7] [ng/mL]	plasma concentration [3, 8] [ng/mL]	plasma concentration [3, 9] [ng/mL]
CCCCCCCCCCCCCCCC(=O)OC[C@H](COP(=O)([O-])OCC[N+](C)(C)C)OC(=O)C(CCC)CCC [C16-DP-VPA, 1-Palmitoyl-2-valproyl-sn-glycero-3-phosphatidylcholine]	significant anticonvulsant activity; also recorded: more potent than sodium valproate	≤ 1	50	4/8	25	6/8	38	5/8	6	14.0 ± 0.6	13 ± 34	167 ± 94	397 ± 172	385 ± 140	368 ± 182	318 ± 150
CCCCCCCCCCCCCCCCCC(=O)OC[C@H](COP(=O)([O-])OCC[N+](C)(C)C)OC(=O)C(CCC)CCC [C18-DP-VPA, 1-Stearoyl-2-valproyl-sn-glycero-3-phosphatidylcholine]	–	4	17	5/6	14	6/7	86	1/7	8	8.3 ± 1.3	0 ± 0	58 ± 43	818 ± 292	1175 ± 137	949 ± 254	698 ± 163
